From the supplement of paper PMC10331698
± gives the standard deviation of the averaged measurements.

Key:
[1] = compound: FC(F)(F)COC(OCC(F)(F)F)OCC(F)(F)F [tris(Trifluoroethoxy)methane]; assay: level (log10 ratio to DMSO vehicle control); higher = higher biomarker level / cell amount than vehicle control; details: in DMSO
Protocol: (§1)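 BioMAP Diversity Plus panel of 12 human primary cell co-culture systems (3C, 4H, LPS, SAg, BT, BF4T, BE3C, CASM3C, HDF3CGF, KF3CT, MyoF, Mphg). Compounds were added 1 h before stimulation and left for 24 h (MyoF 48 h; BT 72 h for soluble read-outs or 6 d for IgG). Biomarkers were read by ELISA, cytotoxicity by SRB, PBMC viability and proliferation by Alamar Blue. Each well value was divided by the mean of 8 DMSO control wells on the same plate and log10 transformed; duplicate blinded samples were tested at 4 concentrations.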

[2] = compound: O=C(CC(=O)C(F)(F)C(F)(F)C(F)(F)F)c1cccs1 [(Perfluorobutyryl)-2-thenoylmethane]; assay: as above; details: in DMSO
Protocol: as §1

Row | Test System | level (log10) ([1]; 6700 nM) | level (log10) ([1]; 20000 nM) | level (log10) ([1]; 60000 nM) | level (log10) ([2]; 6700 nM) | level (log10) ([2]; 20000 nM)
1 | 3C:CD106/VCAM-1 | -0.002 ± 0.016 | -0.0045 ± 0.019 | 0.0095 ± 0.0078 | -0.027 ± 0.0071 | -0.089 ± 0.0099
2 | MyoF:bFGF | -0.004 ± 0.0042 | -0.0155 ± 0.011 | -0.006 ± 0.0028 | 0.002 ± 0.0028 | -0.0175 ± 0.00071
3 | HDF3CGF:SRB | 0.003 ± 0.073 | 0.0335 ± 0.0035 | 0.02 ± 0.038 | 0.0935 ± 0.005 | 0.0145 ± 0.005
4 | MyoF:SRB | -0.0045 ± 0.0035 | -0.001 ± 0.0014 | 0.005 ± 0.0042 | -0.0225 ± 0.022 | -0.0395 ± 0.0035
5 | 3C:CCL2/MCP-1 | -0.0065 ± 0.019 | -0.0115 ± 0.022 | 0.021 ± 0.048 | -0.0145 ± 0.013 | -0.166 ± 0.0085
6 | 3C:CD62E/E-Selectin | -0.022 ± 0.0014 | -0.0185 ± 0.0078 | -0.0245 ± 0.0035 | -0.0365 ± 0.036 | -0.019 ± 0.0014
7 | MyoF:MMP-1 | -0.0085 ± 0.039 | -0.0145 ± 0.021 | 0.02 ± 0.044 | -0.0565 ± 0.052 | -0.0005 ± 0.018
8 | CASM3C:CD142/Tissue Factor | 0.0185 ± 0.047 | -0.011 ± 0.0085 | -0.0275 ± 0.016 | -0.144 ± 0.013 | -0.105 ± 0.021
9 | MyoF:alpha-SM Actin | 0.0075 ± 0.019 | 0 ± 0.011 | -0.012 ± 0.025 | -0.0445 ± 0.042 | -0.0865 ± 0.059
10 | CASM3C:LDLR | -0.0325 ± 0.022 | -0.0055 ± 0.015 | 0.008 ± 0.013 | -0.044 ± 0.025 | -0.079 ± 0.033
11 | HDF3CGF:TIMP-2 | -0.0165 ± 0.029 | -0.002 ± 0.037 | -0.0105 ± 0.005 | -0.115 ± 0.013 | -0.408 ± 0.017
12 | MyoF:Collagen I | -0.006 ± 0.0085 | -0.013 ± 0.017 | -0.01 ± 0.0014 | -0.0255 ± 0.037 | -0.128 ± 0.033
13 | MyoF:CXCL8/IL-8 | -0.0155 ± 0.035 | -0.0125 ± 0.0078 | 0.0195 ± 0.015 | -0.0155 ± 0.0078 | 0.016 ± 0.018
14 | HDF3CGF:TIMP-1 | -0.0195 ± 0.047 | 0.011 ± 0.02 | -0.001 ± 0.042 | 0.069 ± 0.025 | 0.0215 ± 0.011
15 | KF3CT:CCL2/MCP-1 | -0.021 ± 0.035 | -0.029 ± 0.0085 | 0.0315 ± 0.052 | 0.0205 ± 0.013 | 0.006 ± 0.0057
16 | HDF3CGF:M-CSF | -0.0005 ± 0.00071 | -0.0125 ± 0.005 | 0.022 ± 0.037 | 0.0085 ± 0.013 | -0.001 ± 0.0028
17 | KF3CT:SRB | -0.0125 ± 0.00071 | -0.0015 ± 0.0035 | -0.0035 ± 0.012 | -0.008 | -0.0105 ± 0.005
18 | CASM3C:M-CSF | -0.0565 ± 0.015 | -0.03 ± 0.021 | 0.013 ± 0.037 | 0.014 | 0.012 ± 0.04
19 | MyoF:PAI-I | -0.0045 ± 0.018 | -0.0035 ± 0.00071 | 0.008 ± 0.0042 | 0.0095 ± 0.0035 | 0.013 ± 0.0085
20 | CASM3C:CD87/uPAR | -0.0095 ± 0.018 | -0.007 ± 0.023 | -0.021 ± 0.0085 | -0.046 ± 0.018 | -0.0065 ± 0.005
